In patent US4427582A, “Antimicrobial disulfide prodrugs” (SmithKline Beckman Corporation, priority 1982, dated 1984):
Where a SMILES comes first, the peptide text is derived from it. The star is where a group is joined. SPy = c1ccc(S*)nc1

Key:
Candida albicans β311 = assay: Disk activity against Candida albicans β311; type: cell-based
Source text: (§1) For example, disk activity against Candida albicans β311 for the prodrug was 0.04 minimal inhibitory concentration with 0.01 for the warhead alone.

E. coli CB64recA/F'123 = assay: Disc assay for inhibition on seeded agar plates (zones of inhibition after overnight incubation); type: cell-based, Escherichia coli; set-up: unit not given here; details: for Zones of inhibition diameter: section C
Description: The medium was that of Davis and Mingioli, supplemented with 4 μg/ml of thiamine and 50 μg/ml of required amino acid supplements with 1.5% agar for solid media. Seeded agar plates contained 0.1 ml of an overnight culture per 20 ml of molten agar (kept at 49°) containing appropriate supplements.
[…] of test solution was added to 1/4" diameter paper discs and the discs placed on the surface of agar plates which were incubated overnight at 37°. The bacterial strains of E. coli, whose strains are given hereafter, were obtained from the E. coli Genetic Stock Center.
Zones of inhibition on seeded agar plates after overnight incubation.

Fungal = Fungal activity in vitro, prodrug compared with non-latentiated warhead; type: cell-based
Source text: as §1

[1] = 200 nmol per disc, overnight incubation
[2] = 800 nmol per disc, overnight incubation
[3] = 800 nmol per disc, overnight incubation, section B

Compound: [O-][n+]1ccccc1S [2-mercaptopyridyl-1-one, reference compound]
- minimal inhibitory concentration (disk activity) (Candida albicans β311): 0.01

Compound: C[C@H](N)C(=O)N[C@@H](C)C(=O)N[C@@H](CSSCCNc1cc(C(=O)O)nc(C(=O)O)c1)C(=O)O [L-Ala--L-Ala--L-Ala--S--MEPDA, L-alanyl-L-alanyl-β-L-alanyl 2-(2,6-dicarboxy-pyridyl-4)-aminoethyl disulfide]
- Zone of inhibition diameter (E. coli CB64recA/F'123; 30 nmol, tripeptide alone, section D): 11
- Zones of inhibition diameter (E. coli CB64recA/F'123; 40 nmol per disc, overnight incubation): 9
- Zone of inhibition diameter (E. coli CB64recA/F'123; 60 nmol, tripeptide alone, section D): 15
- Zones of inhibition diameter (E. coli CB64recA/F'123; [1]): 16
- Zones of inhibition diameter (E. coli CB64recA/F'123; [2]): 24

Compound: C[C@H](N)C(=O)N[C@@H](CSSc1ccccn1)C(=O)O [L-Ala--L-Ala--S--2MP, L-alanyl-β-L-alanyl 2-pyridyl disulfide] (H-Ala-Cys(SPy)-OH)
- Zone of inhibition diameter (E. coli CB64recA/F'123; [3]): 15

Compound: C[C@H](N)C(=O)N[C@@H](C)C(=O)N[C@@H](CSSc1ccccn1)C(=O)O [L-ala- L-Ala--L-ala- S--2MP, L-alanyl-L-alanyl-β-L-alanyl 2-pyridyl disulfide] (H-Ala-Ala-Cys(SPy)-OH)
- Zone of inhibition diameter (E. coli CB64recA/F'123; 40 nmol per disc, overnight incubation, section B): ( )
- Zone of inhibition diameter (E. coli CB64recA/F'123; 200 nmol per disc, overnight incubation, section B): 14
- Zone of inhibition diameter (E. coli CB64recA/F'123; [3]): 25

Compound: C[C@H](NC(=O)C(N)CCCN)C(=O)N[C@@H](CSSCCNc1cc(C(=O)O)nc(C(=O)O)c1)C(=O)O (stereo partly drawn) [Orn--L-Ala--L-Ala--S--MEPDA]
- Zones of inhibition diameter (E. coli CB64recA/F'123; [1]): 10
- Zones of inhibition diameter (E. coli CB64recA/F'123; [2]): 12

Compound: NCCCC(N)C(=O)NC(CSSCCNc1cc(C(=O)O)nc(C(=O)O)c1)C(=O)O [Orn--L-Ala--S--MEPDA]
- Zones of inhibition diameter (E. coli CB64recA/F'123; 250-500 nmol per disc, overnight incubation): 13

Compound: L-alanyl-β-L-alanyl N-oxy 2-pyridyl disulfide
- minimal inhibitory concentration (disk activity) (Candida albicans β311): 0.04
- activity in vitro relative to 2-mercaptopyridyl-1-one in non-latentiated form (Fungal): generally less activity
- potential for irritation relative to 2-mercaptopyridyl-1-one (Potential for irritation): lower potential for irritation
